The target in data set [1] is T1, Glucocorticoid receptor (Homo sapiens, UniProt P04150).
T1 sequence (P04150 whole entry): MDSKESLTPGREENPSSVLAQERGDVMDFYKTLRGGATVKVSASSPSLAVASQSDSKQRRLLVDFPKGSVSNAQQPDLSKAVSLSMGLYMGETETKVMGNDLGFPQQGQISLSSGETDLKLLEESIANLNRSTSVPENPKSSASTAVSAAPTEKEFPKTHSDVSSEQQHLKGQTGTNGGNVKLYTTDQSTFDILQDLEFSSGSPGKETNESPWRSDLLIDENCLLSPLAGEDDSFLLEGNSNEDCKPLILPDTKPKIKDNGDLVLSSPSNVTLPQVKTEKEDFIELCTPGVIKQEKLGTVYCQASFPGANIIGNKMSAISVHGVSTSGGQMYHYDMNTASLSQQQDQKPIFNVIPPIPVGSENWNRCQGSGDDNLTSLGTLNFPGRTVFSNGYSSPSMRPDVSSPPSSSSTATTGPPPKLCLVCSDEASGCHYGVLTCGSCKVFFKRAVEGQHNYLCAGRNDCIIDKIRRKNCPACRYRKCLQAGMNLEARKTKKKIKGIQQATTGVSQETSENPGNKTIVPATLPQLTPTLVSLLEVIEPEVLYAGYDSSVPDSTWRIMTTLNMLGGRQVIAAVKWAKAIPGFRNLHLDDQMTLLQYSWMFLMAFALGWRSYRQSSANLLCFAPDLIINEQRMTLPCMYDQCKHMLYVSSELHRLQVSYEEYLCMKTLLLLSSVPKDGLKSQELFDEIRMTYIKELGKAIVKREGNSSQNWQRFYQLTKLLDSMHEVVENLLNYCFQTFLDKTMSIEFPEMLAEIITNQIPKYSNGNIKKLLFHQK
Briefly: Agonist activity at GR expressed in african green monkey CV1 cells transfected with luciferase gene linked to MMTV promoter assessed as induction of luciferase transactivation activity relative to Dexamethasone. Format: functional, cell-based, CV-1.

Data set [2] in a line: Metabolic stability in human liver microsomes by HPLC-MS/MS. The class given is ADME, Microsome. Background: Microsomes from liver hold many membrane-bound enzymes, among them those of drug oxidation.
Another data set deals with Mus musculus. Briefly: Antiinflammatory activity in po dosed mouse assessed as carrageenan-induced hind paw edema measured after 3 hrs post dose. The class given is functional. A general note: In the carrageenan paw model, swelling and tenderness develop within hours.
For data set [3], the target named is T1, Glucocorticoid receptor. Briefly: Agonist activity at human GR expressed in NHDF cells assessed as inhibition of IL-6 production by ELISA relative to Dexamethasone. Format: functional, cell-based. In general terms: In an ELISA, binding on a coated surface is turned into a signal by an enzyme label.
Data set [4] is described as follows: Selectivity ratio of Ki for GR to Ki for MR.
Data set [5] is described as follows: Metabolic stability in CD-1 […] liver microsomes by HPLC-MS/MS. The conditions noted are these: CD-1, liver microsomes. Format: ADME, Microsome.
A further data set concerns the target T2, Progesterone receptor (Homo sapiens, UniProt P06401).
T2 sequence (P06401 whole entry): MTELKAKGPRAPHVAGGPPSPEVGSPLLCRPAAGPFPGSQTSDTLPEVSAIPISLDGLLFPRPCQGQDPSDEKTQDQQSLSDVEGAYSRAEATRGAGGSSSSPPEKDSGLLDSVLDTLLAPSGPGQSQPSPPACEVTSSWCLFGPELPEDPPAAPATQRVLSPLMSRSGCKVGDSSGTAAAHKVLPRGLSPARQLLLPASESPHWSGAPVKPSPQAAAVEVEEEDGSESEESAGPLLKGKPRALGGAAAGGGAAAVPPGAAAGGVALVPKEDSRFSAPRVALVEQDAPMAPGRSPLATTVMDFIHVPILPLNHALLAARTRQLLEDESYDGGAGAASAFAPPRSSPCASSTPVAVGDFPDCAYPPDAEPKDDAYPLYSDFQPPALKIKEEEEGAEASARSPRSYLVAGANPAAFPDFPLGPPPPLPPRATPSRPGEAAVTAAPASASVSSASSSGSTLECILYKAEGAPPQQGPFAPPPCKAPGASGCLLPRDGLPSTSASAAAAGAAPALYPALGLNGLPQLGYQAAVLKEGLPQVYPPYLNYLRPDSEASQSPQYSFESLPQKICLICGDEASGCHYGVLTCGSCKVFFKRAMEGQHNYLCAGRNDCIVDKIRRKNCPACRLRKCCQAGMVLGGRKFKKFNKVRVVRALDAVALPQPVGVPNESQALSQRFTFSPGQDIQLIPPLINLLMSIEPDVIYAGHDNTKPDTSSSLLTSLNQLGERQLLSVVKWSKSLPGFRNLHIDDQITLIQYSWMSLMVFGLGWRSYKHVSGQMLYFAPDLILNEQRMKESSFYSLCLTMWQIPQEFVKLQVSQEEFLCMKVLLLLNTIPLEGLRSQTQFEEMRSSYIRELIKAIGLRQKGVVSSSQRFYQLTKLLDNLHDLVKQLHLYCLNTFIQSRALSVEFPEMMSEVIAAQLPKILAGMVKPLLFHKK
Briefly: Binding affinity to PR.

Data set [6] deals with T1, Glucocorticoid receptor. Nature of the data set: Agonist activity at GR expressed in IL-1beta- and TNFalpha-stimulated HepG2 cells assessed as inhibition of NFKB- or AP-1 mediated E-selectin transcription by luciferase reporter gene assay relative to Dexamethasone. The class given is functional, cell-based.
Data set [7] can be described thus: Selectivity ratio of Ki for GR to Ki for PR.
The nature of data set [8]: AUC in Sprague-Dawley rat at 30 mg/kg, po. The class given is ADME, organism-based. Further details: dose 30 mg/kg, route oral. The conditions noted are these: plasma.
A short description of data set [9]: Apparent half life in Sprague-Dawley rat at 30 mg/kg, po. Format: ADME, organism-based. Further details: dose 30 mg/kg, route oral. The conditions noted are these: in vivo.
The nature of data set [10]: Cmax in Sprague-Dawley rat at 30 mg/kg, po. The class given is ADME, organism-based. Further details: dose 30 mg/kg, route oral. The following applies: in vivo.

As usually defined, the EC50 is the concentration that produces a half-maximal response. One may read the half-life as how long it takes for the measured level to halve. As usually defined, the ED50 is the midpoint of the dose-response relation. For orientation: IC50 means the concentration that gives 50% inhibition. Broadly, the Ki is the equilibrium dissociation constant of an inhibitor or competing ligand from its target. For orientation: AUC means the area under the concentration-time curve, a measure of exposure. As a reminder, the Cmax is the peak of the concentration-time curve. For `C[C@H]1c2c(cc(F)c(-c3cccc4cc[nH]c34)c2F)NC(C)(C)[C@@H]1O` (racemic), at Glucocorticoid receptor [1], the EC50 stood at 0.6 nM. Moreover, the half-life in data set [2] is 48 min; in data set [5] it was 30 min; in [9] it was 192 min. In the data set with Mus musculus, the median effective dose (ED50) is 6.6 mg/kg. In addition, the IC50 is 11 nM at Glucocorticoid receptor [3] and 1.5 nM on Glucocorticoid receptor [6]. Besides, the Ratio Ki in data set [4] and in [7] was more than 500 throughout. In addition, at Progesterone receptor, the affinity corresponds to a Ki of 2100 nM. In addition, in data set [8], the AUC was determined as 35 µg·h/mL. Moreover, the highest level in data set [10] (Cmax) was 3.6 µg/mL.
